# Biological target: JAK1 (Homo sapiens (Human), UniProt P23458)
# Assay: Analysis of JAK1 activity inhibition ability (ADP-Glo Kinase Assay)
# Type: biochemical
# Conditions: JAK1 enzyme, ADP-Glo luminescence, ATP 250 uM, IRS-itide substrate, 30° C. 40 minutes; read-out: IC50
# Summary of the method: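 ADP-Glo luminescence read-out of ADP production, with IC50 taken as the concentration halving JAK1 activity relative to control. Enzyme was incubated 40 min at 30 °C with compound, IRS-itide (40 ng/mL) and ATP (250 uM), concentrations as prepared in pH 7.5 Tris-HCl/MgCl2/BSA/DTT buffer.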
# Chain of JAK1 (P23458 whole entry): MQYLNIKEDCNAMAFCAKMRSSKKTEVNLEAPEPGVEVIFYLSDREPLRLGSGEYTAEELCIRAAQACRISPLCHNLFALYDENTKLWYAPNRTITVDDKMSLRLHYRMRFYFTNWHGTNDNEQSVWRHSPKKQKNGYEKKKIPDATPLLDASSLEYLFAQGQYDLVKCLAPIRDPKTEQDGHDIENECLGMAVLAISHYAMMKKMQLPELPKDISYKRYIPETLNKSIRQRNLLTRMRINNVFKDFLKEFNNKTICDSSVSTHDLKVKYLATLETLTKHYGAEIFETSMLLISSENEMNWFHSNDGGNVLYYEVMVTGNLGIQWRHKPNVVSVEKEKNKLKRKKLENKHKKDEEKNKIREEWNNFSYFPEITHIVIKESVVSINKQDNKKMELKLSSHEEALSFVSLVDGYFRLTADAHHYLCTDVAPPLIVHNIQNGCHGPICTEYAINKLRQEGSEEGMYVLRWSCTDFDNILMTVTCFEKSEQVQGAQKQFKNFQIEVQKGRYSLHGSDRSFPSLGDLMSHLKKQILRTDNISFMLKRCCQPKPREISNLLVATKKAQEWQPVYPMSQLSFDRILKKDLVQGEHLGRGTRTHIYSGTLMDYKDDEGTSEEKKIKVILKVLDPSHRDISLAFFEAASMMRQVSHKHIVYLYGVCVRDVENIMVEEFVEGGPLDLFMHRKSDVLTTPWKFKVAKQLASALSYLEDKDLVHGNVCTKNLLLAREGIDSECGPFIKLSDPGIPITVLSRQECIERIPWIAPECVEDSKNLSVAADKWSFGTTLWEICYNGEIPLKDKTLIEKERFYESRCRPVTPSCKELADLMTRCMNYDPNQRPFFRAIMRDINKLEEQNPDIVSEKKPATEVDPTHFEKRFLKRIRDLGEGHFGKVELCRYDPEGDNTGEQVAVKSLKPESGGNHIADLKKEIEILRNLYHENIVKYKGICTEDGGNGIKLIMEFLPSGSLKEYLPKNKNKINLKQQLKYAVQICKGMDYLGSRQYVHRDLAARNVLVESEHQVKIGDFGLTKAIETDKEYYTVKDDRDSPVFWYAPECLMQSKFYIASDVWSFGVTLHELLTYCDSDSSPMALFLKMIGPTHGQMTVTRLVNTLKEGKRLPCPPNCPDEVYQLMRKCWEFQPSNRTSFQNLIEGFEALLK
row,Compound,IC50
1,"Cc1cc(NS(=O)(=O)CC2CC2)ccc1-c1cc(NC(=O)C2CC2)nc2[nH]ccc12 [Example 92, N-(4-(4-((cyclopropylmethyl)sulfonamido)-2-methylphenyl)-1H-pyrrolo[2,3-b]pyridin-6-yl)cyclopropanecarboxamide]",20 to 200 nM
2,"CCS(=O)(=O)Nc1ccc(-c2cc(NC(=O)C3CC3)nc3[nH]cc(C)c23)cc1 [Example 93, N-(4-(4-(ethylsulfonamido)phenyl)-3-methyl-1H-pyrrolo[2,3-b]pyridin-6-yl)cyclopropanecarboxamide]",20 to 200 nM
3,"CCCS(=O)(=O)Nc1ccc(-c2cc(NC(=O)C3CC3)nc3[nH]cc(C)c23)cc1 [Example 94, N-(3-methyl-4-(4-(propylsulfonamido)phenyl)-1H-pyrrolo[2,3-b]pyridin-6-yl)cyclopropanecarboxamide]",20 to 200 nM
4,"CCCS(=O)(=O)Nc1ccc(-c2cc(NC(=O)C3CC3)nc3[nH]ccc23)c(C)c1 [Example 95, N-(4-(2-methyl-4-(propylsulfonamido)phenyl)-1H-pyrrolo[2,3-b]pyridin-6-yl)cyclopropanecarboxamide]",20 to 200 nM
5,"Cc1cc(NS(=O)(=O)CCCC#N)ccc1-c1cc(NC(=O)C2CC2)nc2[nH]ccc12 [Example 96, N-(4-(4-((3-cyanopropyl)sulfonamido)-2-methylphenyl)-1H-pyrrolo[2,3-b]pyridin-6-yl)cyclopropanecarboxamide]",20 to 200 nM
6,"CCS(=O)(=O)Nc1ccc(-c2cc(NC(=O)C3CC3)[n+]([O-])c3[nH]ccc23)cc1F [Example 97, 6-(cyclopropanecarboxamido)-4-(4-(ethylsulfonamido)-3-fluorophenyl)-1H-pyrrolo[2,3-b]pyridine 7-oxide]",20 to 200 nM
7,"CCS(=O)(=O)Nc1ccc(-c2cc(NC(=O)C3CC3)nc3[nH]ccc23)cc1C(F)(F)F [Example 98, N-(4-(4-(ethylsulfonamido)-3-(trifluoromethyl)phenyl)-1H-pyrrolo[2,3-b]pyridin-6-yl)cyclopropanecarboxamide]",20 to 200 nM
8,"CCc1cc(NS(=O)(=O)CC)ccc1-c1cc(NC(=O)C2CC2)nc2[nH]ccc12 [Example 99, N-(4-(2-ethyl-4-(ethylsulfonamido)phenyl)-1H-pyrrolo[2,3-b]pyridin-6-yl)cyclopropanecarboxamide]",< 20 nM
9,"CCCS(=O)(=O)Nc1ccc(-c2cc(NC(=O)C3CC3)nc3[nH]ccc23)c(C)c1F [Example 100, N-(4-(3-fluoro-2-methyl-4-(propylsulfonamido)phenyl)-1H-pyrrolo[2,3-b]pyridin-6-yl)cyclopropanecarboxamide]",20 to 200 nM
10,"CCS(=O)(=O)Nc1ccc(-c2cc(NC(=O)C3CC3)nc3[nH]ccc23)c(C)c1F [Example 101, N-(4-(4-(ethylsulfonamido)-3-fluoro-2-methylphenyl)-1H-pyrrolo[2,3-b]pyridin-6-yl)cyclopropanecarboxamide]",20 to 200 nM
11,"Cc1cc(NS(=O)(=O)CC2(C#N)CC2)ccc1-c1cc(NC(=O)C2CC2)nc2[nH]ccc12 [Example 102, N-(4-(4-(((1-cyanocyclopropyl)methyl)sulfonamido)-2-methylphenyl)-1H-pyrrolo[2,3-b]pyridin-6-yl)cyclopropanecarboxamide]",< 20 nM
12,"Cc1cc(NS(=O)(=O)CC2(CC#N)CC2)ccc1-c1cc(NC(=O)C2CC2)nc2[nH]ccc12 [Example 103, N-(4-(4-(((1-(cyanomethyl)cyclopropyl)methyl)sulfonamido)-2-methylphenyl)-1H-pyrrolo[2,3-b]pyridin-6-yl)cyclopropanecarboxamide]",< 20 nM
13,"N#CCCCS(=O)(=O)Nc1cc(F)c(-c2cc(NC(=O)C3CC3)nc3[nH]ccc23)cc1F [Example 104, N-(4-(4-((3-cyanopropyl)sulfonamido)-2,5-difluorophenyl)-1H-pyrrolo[2,3-b]pyridin-6-yl)cyclopropanecarboxamide]",20 to 200 nM
14,"N#CC1(CS(=O)(=O)Nc2cc(F)c(-c3cc(NC(=O)C4CC4)nc4[nH]ccc34)cc2F)CC1 [Example 105, N-(4-(4-(((1-cyanocyclopropyl)methyl)sulfonamido)-2,5-difluorophenyl)-1H-pyrrolo[2,3-b]pyridin-6-yl)cyclopropanecarboxamide]",< 20 nM
15,"N#CCC1(CS(=O)(=O)Nc2cc(F)c(-c3cc(NC(=O)C4CC4)nc4[nH]ccc34)cc2F)CC1 [Example 106, N-(4-(4-(((1-(cyanomethyl)cyclopropyl)methyl)sulfonamido)-2,5-difluorophenyl)-1H-pyrrolo[2,3-b]pyridin-6-yl)cyclopropanecarboxamide]",< 20 nM
16,"N#CC1(CS(=O)(=O)Nc2c(F)cc(-c3cc(NC(=O)C4CC4)nc4[nH]ccc34)cc2F)CC1 [Example 107, N-(4-(4-(((1-cyanocyclopropyl)methyl)sulfonamido)-3,5-difluorophenyl)-1H-pyrrolo[2,3-b]pyridin-6-yl)cyclopropanecarboxamide]",20 to 200 nM

row,Compound,IC50
1,"N#CCC1(CS(=O)(=O)Nc2c(F)cc(-c3cc(NC(=O)C4CC4)nc4[nH]ccc34)cc2F)CC1 [Example 108, N-(4-(4-(((1-(cyanomethyl)cyclopropyl)methyl)sulfonamido)-3,5-difluorophenyl)-1H-pyrrolo[2,3-b]pyridin-6-yl)cyclopropanecarboxamide]",< 20 nM
2,"CCc1cc(NS(=O)(=O)CC2(C#N)CC2)ccc1-c1cc(NC(=O)C2CC2)nc2[nH]ccc12 [Example 109, N-(4-(4-(((1-cyanocyclopropyl)methyl)sulfonamido)-2-ethylphenyl)-1H-pyrrolo[2,3-b]pyridin-6-yl)cyclopropanecarboxamide]",< 20 nM
3,"CCc1cc(NS(=O)(=O)CC2(CC#N)CC2)ccc1-c1cc(NC(=O)C2CC2)nc2[nH]ccc12 [Example 110, N-(4-(4-(((1-(cyanomethyl)cyclopropyl)methyl)sulfonamido)-2-ethylphenyl)-1H-pyrrolo[2,3-b]pyridin-6-yl)cyclopropanecarboxamide]",< 20 nM
4,"CCc1cc(NS(=O)(=O)CCCC#N)ccc1-c1cc(NC(=O)C2CC2)nc2[nH]ccc12 [Example 111, N-(4-(4-((3-cyanopropyl)sulfonamido)-2-ethylphenyl)-1H-pyrrolo[2,3-b]pyridin-6-yl)cyclopropanecarboxamide]",< 20 nM
5,"CCc1cc(NS(=O)(=O)C2CCCCC2)ccc1-c1cc(NC(=O)C2CC2)nc2[nH]ccc12 [Example 112, N-(4-(4-(cyclohexanesulfonamido)-2-ethylphenyl)-1H-pyrrolo[2,3-b]pyridin-6-yl)cyclopropanecarboxamide]",20 to 200 nM
6,"CCc1cc(NS(=O)(=O)C2CC2)ccc1-c1cc(NC(=O)C2CC2)nc2[nH]ccc12 [Example 113, N-(4-(4-(cyclopropanesulfonamido)-2-ethylphenyl)-1H-pyrrolo[2,3-b]pyridin-6-yl)cyclopropanecarboxamide]",< 20 nM
7,"CCc1cc(NS(=O)(=O)C2CCC2)ccc1-c1cc(NC(=O)C2CC2)nc2[nH]ccc12 [Example 114, N-(4-(4-(cyclobutanesulfonamido)-2-ethylphenyl)-1H-pyrrolo[2,3-b]pyridin-6-yl)cyclopropanecarboxamide]",< 20 nM
8,"CCCS(=O)(=O)Nc1ccc(-c2cc(NC(=O)C3CC3)nc3[nH]ccc23)c(CC)c1 [Example 115, N-(4-(2-ethyl-4-(propylsulfonamido)phenyl)-1H-pyrrolo[2,3-b]pyridin-6-yl)cyclopropanecarboxamide]",< 20 nM
9,"CCCCS(=O)(=O)Nc1ccc(-c2cc(NC(=O)C3CC3)nc3[nH]ccc23)c(CC)c1 [Example 116, N-(4-(4-(butylsulfonamido)-2-ethylphenyl)-1H-pyrrolo[2,3-b]pyridin-6-yl)cyclopropanecarboxamide]",20 to 200 nM
10,"Cc1cc(NS(=O)(=O)CCCC(F)(F)F)ccc1-c1cc(NC(=O)C2CC2)nc2[nH]ccc12 [Example 117, N-(4-(2-methyl-4-((4,4,4-trifluorobutyl)sulfonamido)phenyl)-1H-pyrrolo[2,3-b]pyridin-6-yl)cyclopropanecarboxamide]",< 20 nM
11,"O=C(Nc1cc(-c2ccc(NS(=O)(=O)C3CC3)cc2C(F)(F)F)c2cc[nH]c2n1)C1CC1 [Example 118, N-(4-(4-(cyclopropanesulfonamido)-2-(trifluoromethyl)phenyl)-1H-pyrrolo[2,3-b]pyridin-6-yl)cyclopropanecarboxamide]",20 to 200 nM
12,"CCCS(=O)(=O)Nc1ccc(-c2cc(NC(=O)C3CC3)nc3[nH]ccc23)c(C(F)(F)F)c1 [Example 119, N-(4-(4-(propylsulfonamido)-2-(trifluoromethyl)phenyl)-1H-pyrrolo[2,3-b]pyridin-6-yl)cyclopropanecarboxamide]",20 to 200 nM
13,"O=C(Nc1cc(-c2ccc(NS(=O)(=O)C3CCC3)cc2C(F)(F)F)c2cc[nH]c2n1)C1CC1 [Example 120, N-(4-(4-(cyclobutanesulfonamido)-2-(trifluoromethyl)phenyl)-1H-pyrrolo[2,3-b]pyridin-6-yl)cyclopropanecarboxamide]",20 to 200 nM
14,"O=C(Nc1cc(-c2ccc(NS(=O)(=O)c3ccc(F)c(F)c3)cc2C(F)(F)F)c2cc[nH]c2n1)C1CC1 [Example 121, N-(4-(4-((3,4-difluorophenyl)sulfonamido)-2-(trifluoromethyl)phenyl)-1H-pyrrolo[2,3-b]pyridin-6-yl)cyclopropanecarboxamide]",20 to 200 nM
15,"O=C(Nc1cc(-c2ccc(NS(=O)(=O)c3cccc(F)c3)cc2C(F)(F)F)c2cc[nH]c2n1)C1CC1 [Example 122, N-(4-(4-((3-fluorophenyl)sulfonamido)-2-(trifluoromethyl)phenyl)-1H-pyrrolo[2,3-b]pyridin-6-yl)cyclopropanecarboxamide]",20 to 200 nM
16,"CCc1cc(-c2cc(NC(=O)C3CC3)nc3[nH]ccc23)ccc1NS(=O)(=O)CC1(C#N)CC1 [Example 123, N-(4-(4-(((1-cyanocyclopropyl)methyl)sulfonamido)-3-ethylphenyl)-1H-pyrrolo[2,3-b]pyridin-6-yl)cyclopropanecarboxamide]",< 20 nM
